Results taken from patent publication US20100305214A1, “Use of a Monoterpene to Increase Tissue Repair” (Aisa Therapeutics, priority 2007, published 2010).

Legend:
[1] = system: skin inflammation; experiment: Mouse chronic skin inflammation model (TPA); format: in vivo; conditions: 10 mg/kg/day topical, 10 days
Method: 100 μl of a TPA solution were applied daily on the dorsal surfaces of mice during seven days (from J4 to J10) at a concentration of 0.2 mg/ml.
The daily topical treatment begun 3 days before the induction of skin inflammation (=Ji) and was continued 7 days after the induction of skin inflammation (=J10).
From J4 to J10, the assayed products were applied 30 minutes before the application of TPA on the same skin area.
The mice were anaesthetized by intraperitoneal injection of a mixture of Ketamine (Ketamine 1000, Virbac, Carros, France) and Xylazine (Rompun 2%, Bayer Healthcare, Kiel, Allemagne). (2/3-1/3 vol/vol) at a dosis of 8 ml/kg. Blood (1 ml) was punctured intracardiacally after the last treatment. Blood samples were stored at +4° C. during 20 to 30 minutes then centrifuged at 1500 g for 15 minutes. Serums were removed, freezed at −20° C. and stored at −80° C. until pro-inflammatory cytokines dosage.
Dorsal skin samples were removed, fixed and stored in formaldehyde (Rotr-Histofix 4%, Carl Roth, Karlsruhe, Allemagne) until histopathological analysis.
Kruskal-Wallis test followed possibly by the Mann-Whitney test was used to compare the different studied variables of the treated groups by comparison with the groups “Control” and “TPA+Control”. Significativity threshold was settled at P<0.05.

[2] = target: isoprenylation enzymes; conditions: cited from earlier work
[3] = system: wound healing process; experiment: Healing after scarification of the skin in hairless Skh-1 mice; conditions: 10 mg/kg/day topical in maize oil, 8 days
Method: 6 female mice hairless Skh-1 with an average weight of 20-25 g were used.
Each mouse was submitted to a scarification of the skin on each flank.
The daily topical treatment begun 1 hour before the scarification and was continued 8 days after the scarification.
Daily observations and photographs were performed in order to follow the healing process.

[4] = system: colon inflammation; experiment: Preventive anti-inflammatory effects in a rat colitis model (TNBS); format: in vivo; conditions: for average lengths of the colons vs group TNBS/Control / microscopic score of the colons: 6 days after induction; for average macroscopic score of the colons (Mean ± ESM): colons removed 6 days after induction, n = 6; for rats average weights vs group TNBS/Control: J6
Method: Average macroscopic and microscopic scores of the colons sampled 6 days after the induction of colon inflammation were compared.
Colon inflammation was induced by a unique rectal administration of a 2,4,6-trinitrobenzen-sulfonic acid solution (TNBS, Fluka, France). TNBS was dissolved in 40° alcohol at a concentration of 50 mg/ml. Animals were anaesthetised intraperitoneally by 2 mg/kg of Calmivet (Vetoquinol, Lure, France) and 50 mg/kg of Ketamine (Ketamine 1000, Virbac, Carros, France). 0.4 ml of the TNBS solution was administered rectally and the rats were maintained during at least 30 minutes to avoid the releasing of the TNBS.
Kruskal-Wallis test followed possibly by the Mann-Whitney test was used to compare the different studied variables of the treated groups by comparison with the groups “Control” and “TNBS/Control”. Significativity threshold was settled at P<0.05.

[5] = system: repaired extensor tendon, wound contraction, epithelialization; conditions: in vivo; cited from earlier work
[6] = at doses which may have clinical activity; cited from earlier work

C=C(C)[C@@H]1CC=C(CO)CC1 [Perillyl alcohol, (S)-4-Isopropenyl-1-cyclohexenylmethanol]
average macroscopic score of skin inflammation vs group TPA+Limonene [1]: significantly lower
average macroscopic scores of skin inflammation vs group TPA+control [1]: significantly lower
average microscopic scores of skin inflammation vs group TPA+control [1]: significantly lower
average serum level of IL-1β vs TPA+control group [1]: tendency to be significantly lower
average serum level of IL-6 vs TPA+control group [1]: significantly lower
average serum level of TNF-α vs TPA+control group [1]: significantly lower
histopathological analysis of the skin samples [1]: skins were little inflammatory; showed non-specific inflammatory skin lesions without epidermis ulceration and with an inflammatory rarely marked
Average serum levels of IL-1β (Mean ± ESM) ([1]; TPA-treated mice): 5.3 ± 1.7 pg/mL
Average serum levels of IL-6 (Mean ± ESM) ([1]; TPA-treated mice): 13.0 ± 3.8 pg/mL
Average serum levels of TNF-α (Mean ± ESM) ([1]; TPA-treated mice): 80.6 ± 24.7 pg/mL
IC50 values, isoprenylation enzymes [2]: low mM range
wound healing process in comparison with corn oil alone [3]: much better results
wound healing process in comparison with limonene [3]: better results

S-limonene [reference compound]
inhibition of the isoprenylation enzymes [2]: weak inhibitors

CC(C)Cc1ccc([C@H](C)C(=O)O)cc1 [Ibuprofen, (S)-(+)-Ibuprofen, reference compound]
average macroscopic scores of the colons vs groups TNBS/Control and TNBS/Limonene 100 ([4]; 50 mg/kg daily oral): significantly lower
average lengths of the colons vs group TNBS/Control ([4]; 50 mg/kg daily oral): significantly lower
average macroscopic score of the colons (Mean ± ESM) ([4]; 50 mg/kg daily oral): 4.7 ± 2.7
rats average weights vs group TNBS/Control ([4]; Ibuprofen 50 mg/kg daily oral): not significantly different
breaking strength of the repaired extensor tendon, wound contraction, and epithelialization [5]: reduce

C=C(C)[C@H]1CC=C(C)CC1 [Limonene, (4R)-1-methyl-4-isopropenylcyclohex-1-ene]
average macroscopic scores of the colons vs groups TNBS/Control and TNBS/Limonene 100 ([4]; 10 mg/kg daily oral): significantly lower
average lengths of the colons vs group TNBS/Control ([4]; 10 mg/kg daily oral): significantly lower
microscopic score of the colons ([4]; 10 mg/kg daily oral): 2
average macroscopic score of the colons (Mean ± ESM) ([4]; 10 mg/kg daily oral): 6.5 ± 1.3
average lengths of the colons vs group TNBS/Control ([4]; 100 mg/kg daily oral): significantly lower
microscopic score of the colons ([4]; 100 mg/kg daily oral): 4
average macroscopic score of the colons (Mean ± ESM) ([4]; 100 mg/kg daily oral): 10.7 ± 2.7
rats average weights vs group TNBS/Control ([4]; Limonene 10 mg/kg daily oral): not significantly different
rats average weights vs group TNBS/Control ([4]; Limonene 100 mg/kg daily oral): not significantly different
circulating TNF-α level ([4]; at a concentration five times inferior to the concentrations of Ibuprofen): decreased
post-inflammatory tissue repair, compared with ibuprofen ([4]; oral administration, colons sampled 6 days after induction): induced post-inflammatory tissue repair
inhibition of the isoprenylation enzymes [2]: weak inhibitors
tolerance in cancer patients [6]: well tolerated

C=C(C)[C@@H]1CC=C(C(=O)O)CC1 [perillic acid, reference compound]
IC50 values, isoprenylation enzymes [2]: low mM range
